Experimental data: US20170190671A1, “BIS(ARYL)CATECHOL DERIVATIVES AS HERBICIDES” (E I DU PONT DE NEMOURS AND COMPANY, priority 2014, published 2017)

Key:
Experiment in all cases: Test D postemergence
Assay type in all cases: in vivo
Details in all cases: scale 0 to 100
[1] = tested on: wild mustard (Sinapis arvensis)
Method in brief: (§1)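 Assessment is visual, relative to untreated controls, 14 to 21 days after application, with 100 meaning complete control. Seeds in silt loam receive preemergence spray; seedlings at the 1- to 4-leaf stage receive postemergence spray.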

kochia (Kochia scoparia) = tested on: kochia (Kochia scoparia)
Method in brief: as §1

[2] = tested on: lambsquarters (Chenopodium album)
Method in brief: as §1

[3] = tested on: speedwell (bird's-eye speedwell, Veronica persica)
Method in brief: as §1

[4] = tested on: winter barley (Hordeum vulgare)
Method in brief: as §1

[5] = tested on: downy bromegrass (Bromus tectorum)
Method in brief: as §1

[6] = tested on: green foxtail (Setaria viridis)
Method in brief: as §1

[7] = tested on: bluegrass (annual bluegrass, Poa annua)
Method in brief: as §1

[8] = tested on: field violet (Viola arvensis)
Method in brief: as §1

[9] = tested on: field poppy (Papaver rhoeas)
Method in brief: as §1

[10] = tested on: wild radish (Raphanus raphanistrum)
Method in brief: as §1

[11] = tested on: Russian thistle (Salsola kali)
Method in brief: as §1

[12] = tested on: canarygrass (Phalaris minor)
Method in brief: as §1

[13] = tested on: chamomile (scentless chamomile, Matricaria inodora)
Method in brief: as §1

[14] = tested on: wild buckwheat (Polygonum convolvulus)
Method in brief: as §1

[15] = tested on: spring wheat (Triticum aestivum)
Method in brief: as §1

[16] = tested on: galium (catchweed bedstraw, Galium aparine)
Method in brief: as §1

[17] = tested on: blackgrass (Alopecurus myosuroides)
Method in brief: as §1

[18] = tested on: pigweed (Amaranthus retroflexus)
Method in brief: as §1

[19] = tested on: Italian ryegrass (Lolium multiflorum)
Method in brief: as §1

[20] = tested on: oilseed rape (Brassica napus)
Method in brief: as §1

Fc1cnc(Oc2c(F)cccc2Oc2ncc(Cl)cn2)nc1 [Compound 23]
Plant response rating, Mustard, Wild ([1]; 16 g ai/ha): 25
Plant response rating, Mustard, Wild ([1]; 31 g ai/ha): 35
Plant response rating, Mustard, Wild ([1]; 62 g ai/ha): 65
Plant response rating, Mustard, Wild ([1]; 125 g ai/ha): 95
Plant response rating, Kochia (kochia (Kochia scoparia); 16 g ai/ha): 15
Plant response rating, Kochia (kochia (Kochia scoparia); 31 g ai/ha): 20
Plant response rating, Kochia (kochia (Kochia scoparia); 62 g ai/ha): 30
Plant response rating, Kochia (kochia (Kochia scoparia); 125 g ai/ha): 50
Plant response rating, Lambsquarters ([2]; 16 g ai/ha): 10
Plant response rating, Lambsquarters ([2]; 31 g ai/ha): 30
Plant response rating, Lambsquarters ([2]; 62 g ai/ha): 60
Plant response rating, Lambsquarters ([2]; 125 g ai/ha): 60
Plant response rating, Speedwell ([3]; 16 g ai/ha): 40
Plant response rating, Speedwell ([3]; 31 g ai/ha): 75
Plant response rating, Speedwell ([3]; 62 g ai/ha): 100
Plant response rating, Speedwell ([3]; 125 g ai/ha): 100
Plant response rating, Barley, Winter ([4]; 16 g ai/ha): 0
Plant response rating, Barley, Winter ([4]; 31 g ai/ha): 5
Plant response rating, Barley, Winter ([4]; 62 g ai/ha): 5
Plant response rating, Barley, Winter ([4]; 125 g ai/ha): 5
Plant response rating, Bromegrass, Downy ([5]; 16 g ai/ha): 5
Plant response rating, Bromegrass, Downy ([5]; 31 g ai/ha): 10
Plant response rating, Bromegrass, Downy ([5]; 62 g ai/ha): 20
Plant response rating, Bromegrass, Downy ([5]; 125 g ai/ha): 25
Plant response rating, Foxtail, Green ([6]; 16 g ai/ha): 10
Plant response rating, Foxtail, Green ([6]; 31 g ai/ha): 10
Plant response rating, Foxtail, Green ([6]; 62 g ai/ha): 15
Plant response rating, Foxtail, Green ([6]; 125 g ai/ha): 20
Plant response rating, Bluegrass ([7]; 16 g ai/ha): 5
Plant response rating, Bluegrass ([7]; 31 g ai/ha): 10
Plant response rating, Bluegrass ([7]; 62 g ai/ha): 15
Plant response rating, Bluegrass ([7]; 125 g ai/ha): 35
Plant response rating, Field Violet ([8]; 16 g ai/ha): 15
Plant response rating, Field Violet ([8]; 31 g ai/ha): 60
Plant response rating, Field Violet ([8]; 62 g ai/ha): 60
Plant response rating, Field Violet ([8]; 125 g ai/ha): 70
Plant response rating, Field Poppy ([9]; 16 g ai/ha): 50
Plant response rating, Field Poppy ([9]; 31 g ai/ha): 70
Plant response rating, Field Poppy ([9]; 62 g ai/ha): 75
Plant response rating, Field Poppy ([9]; 125 g ai/ha): 80
Plant response rating, Radish, Wild ([10]; 16 g ai/ha): 25
Plant response rating, Radish, Wild ([10]; 31 g ai/ha): 80
Plant response rating, Radish, Wild ([10]; 62 g ai/ha): 80
Plant response rating, Radish, Wild ([10]; 125 g ai/ha): 85
Plant response rating, Russian Thistle ([11]; 16 g ai/ha): 0
Plant response rating, Russian Thistle ([11]; 31 g ai/ha): 5
Plant response rating, Russian Thistle ([11]; 62 g ai/ha): 10
Plant response rating, Russian Thistle ([11]; 125 g ai/ha): 15
Plant response rating, Canarygrass ([12]; 16 g ai/ha): 10
Plant response rating, Canarygrass ([12]; 31 g ai/ha): 20
Plant response rating, Canarygrass ([12]; 62 g ai/ha): 25
Plant response rating, Canarygrass ([12]; 125 g ai/ha): 55
Plant response rating, Chamomile ([13]; 16 g ai/ha): 0
Plant response rating, Chamomile ([13]; 31 g ai/ha): 0
Plant response rating, Chamomile ([13]; 62 g ai/ha): 0
Plant response rating, Chamomile ([13]; 125 g ai/ha): 5
Plant response rating, Buckwheat, Wild ([14]; 16 g ai/ha): 50
Plant response rating, Buckwheat, Wild ([14]; 31 g ai/ha): 70
Plant response rating, Buckwheat, Wild ([14]; 62 g ai/ha): 75
Plant response rating, Buckwheat, Wild ([14]; 125 g ai/ha): 75
Plant response rating, Wheat, Spring ([15]; 16 g ai/ha): 0
Plant response rating, Wheat, Spring ([15]; 31 g ai/ha): 5
Plant response rating, Wheat, Spring ([15]; 62 g ai/ha): 5
Plant response rating, Wheat, Spring ([15]; 125 g ai/ha): 10
Plant response rating, Galium ([16]; 16 g ai/ha): 65
Plant response rating, Galium ([16]; 31 g ai/ha): 70
Plant response rating, Galium ([16]; 62 g ai/ha): 85
Plant response rating, Galium ([16]; 125 g ai/ha): 85
Plant response rating, Blackgrass ([17]; 16 g ai/ha): 10
Plant response rating, Blackgrass ([17]; 31 g ai/ha): 20
Plant response rating, Blackgrass ([17]; 62 g ai/ha): 35
Plant response rating, Blackgrass ([17]; 125 g ai/ha): 55
Plant response rating, Pigweed ([18]; 16 g ai/ha): 55
Plant response rating, Pigweed ([18]; 31 g ai/ha): 60
Plant response rating, Pigweed ([18]; 62 g ai/ha): 70
Plant response rating, Pigweed ([18]; 125 g ai/ha): 90
Plant response rating, Ryegrass, Italian ([19]; 16 g ai/ha): 0
Plant response rating, Ryegrass, Italian ([19]; 31 g ai/ha): 5
Plant response rating, Ryegrass, Italian ([19]; 62 g ai/ha): 10
Plant response rating, Ryegrass, Italian ([19]; 125 g ai/ha): 25
Plant response rating, Oilseed Rape ([20]; 16 g ai/ha): 30
Plant response rating, Oilseed Rape ([20]; 31 g ai/ha): 65
Plant response rating, Oilseed Rape ([20]; 62 g ai/ha): 75
Plant response rating, Oilseed Rape ([20]; 125 g ai/ha): 95
